# Assay: Determination of total drug concentration in rat brain (BBB penetration)
# Format: in vivo
# Settings: male SD rat, 2 mg/kg IV infusion for 4 hours, brain collected at end of 4 hours
row,Compound,BBB activity
1,C=CC(=O)N1[C@H](C)CN(c2nc(=O)n3c4c(c(-c5ccc(F)c(Cl)c5)c(C(F)(F)F)cc24)SC[C@@H](OCOC)C3)C[C@@H]1C [Example 13-78],− (Compounds that did not meet this threshold are indicated as “−”)
2,C=CC(=O)N1C[C@H](C)N(c2nc(=O)n3c4c(c(-c5ccc(F)cc5)c(C(F)(F)F)cc24)SCC2(COC2)C3)C[C@H]1C [Example 13-79],− (Compounds that did not meet this threshold are indicated as “−”)
3,C=CC(=O)N1C[C@H](C)N(c2nc(=O)n3c4c(c(-c5ccc(F)cc5F)c(Cl)cc24)OC[C@H]3CCCN2CCC(F)(F)C2)C[C@H]1C [Example 13-80],− (Compounds that did not meet this threshold are indicated as “−”)
4,C=CC(=O)N1CCN(c2nc(=O)n3c4c(c(-c5cc(Cl)c(F)cc5F)c(Cl)cc24)OC[C@@H]3CN2CCN(CC(F)F)CC2)[C@@H](C)C1 [Example 13-81],− (Compounds that did not meet this threshold are indicated as “−”)
5,C=CC(=O)N1[C@H](C)CN(c2nc(=O)n3c4c(c(-c5ccc(F)c(Cl)c5)c(C(F)(F)F)cc24)SC[C@@H](OCC)C3)C[C@@H]1C [Example 13-82],− (Compounds that did not meet this threshold are indicated as “−”)
6,C=CC(=O)N1[C@H](C)CN(c2nc(=O)n3c4c(c(-c5ccc(F)cc5)c(C(F)(F)F)cc24)SC[C@@H](OCOC)C3)C[C@@H]1C [Example 13-83],− (Compounds that did not meet this threshold are indicated as “−”)
7,C=CC(=O)N1[C@H](C)CN(c2nc(=O)n3c4c(c(-c5cc(Cl)c(F)cc5F)c(C(F)(F)F)cc24)SC[C@@H](N2CCOCC2)C3)C[C@@H]1C [Example 13-84],− (Compounds that did not meet this threshold are indicated as “−”)
8,C=CC(=O)N1C[C@H](C)N(c2nc(=O)n3c4c(c(-c5ccc(F)cc5F)c(Cl)cc24)OC[C@H]3CC2CCN(C)CC2)C[C@H]1C [Example 13-85],− (Compounds that did not meet this threshold are indicated as “−”)
9,C=CC(=O)N1[C@H](C)CN(c2nc(=O)n3c4c(c(-c5cc(Cl)c(F)cc5F)c(C(F)(F)F)cc24)SC[C@@H]3CC2CCN(CC)CC2)C[C@@H]1C [Example 13-86],− (Compounds that did not meet this threshold are indicated as “−”)
10,C=CC(=O)N1[C@H](C)CN(c2nc(=O)n3c4c(c(-c5ccc(F)cc5F)c(C(F)(F)F)cc24)SCC2(COC2)C3)C[C@@H]1C [Example 13-87],− (Compounds that did not meet this threshold are indicated as “−”)
11,C=CC(=O)N1CCN(c2nc(=O)n3c4c(c(-c5ccc(F)cc5F)c(C(F)(F)F)cc24)SC[C@@H]3CC2CCOCC2)[C@@H](C)C1 [Example 13-88],− (Compounds that did not meet this threshold are indicated as “−”)
12,C=CC(=O)N1[C@H](C)CN(c2nc(=O)n3c4c(c(-c5ccc(F)cc5)c(C(F)(F)F)cc24)SCC(COC)(COC)C3)C[C@@H]1C [Example 13-89],− (Compounds that did not meet this threshold are indicated as “−”)
13,C=CC(=O)N1[C@H](C)CN(c2nc(=O)n3c4c(c(-c5cc(Cl)c(F)cc5F)c(C(F)(F)F)cc24)SC[C@@H](Nc2ncccn2)C3)C[C@@H]1C [Example 13-90],− (Compounds that did not meet this threshold are indicated as “−”)
14,C=CC(=O)N1C[C@H](C)N(c2nc(=O)n3c4c(c(-c5ccc(F)cc5F)c(C(F)(F)F)cc24)OC[C@@H]3COCCOC)C[C@H]1C [Example 13-91],− (Compounds that did not meet this threshold are indicated as “−”)
15,C=CC(=O)N1CCN(c2nc(=O)n(-c3c(C)ccnc3C(C)C)c3nc(-c4c(O)cccc4F)c(F)cc23)[C@@H](C)C1 [Example 13-92],− (Compounds that did not meet this threshold are indicated as “−”)

# From US20230107642A1 (Erasca, Inc., priority 2020, published 2023)
